Some test systems named below: SNB-75 CNS; TK-10 renal; COLO 205 colon; T-47D breast; MALME-3M melanoma; KM12 colon; HCT-15 colon; IGROV1 ovarian.
Holding throughout (experiment): DTP human tumour cell line panel, 48 h

Where “and” joins values, the source holds several entries; their conditions need not be identical. Equal entries are not always repeated.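 Following 48 hours of exposure in 96-well plates, responses at five concentrations were used to interpolate endpoints linearly. Here, GI50 denotes the concentration required for 50% inhibition of growth. TGI is the concentration that stops growth completely.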

Consider `Clc1ccc2c(c1)N(C1CCCN(Cc3ccccc3)C1)c1ccccc1S2` (centres undefined), for which the GI50 in the experiment on SNB-75 CNS was 4.11 µM; in the experiment with TK-10 renal, 71.8 µM; in the experiment with COLO 205 colon, 2.9 µM; in the experiment with T-47D breast, 7.4 µM; in the experiment on MALME-3M melanoma it was 3.88 µM; with KM12 colon, 4.73 µM. In addition, the GI50 in the experiment on HCT-15 colon was 4.12 µM. In addition, the TGI was more than 100 µM with SNB-75 CNS; more than 100 µM in the experiment on TK-10 renal; 10.1 µM in the experiment with COLO 205 colon; more than 100 µM with T-47D breast; 39.9 µM in the experiment with MALME-3M melanoma; more than 100 µM in the experiment on KM12 colon. The compound further gave a TGI in the experiment with HCT-15 colon of more than 100 µM.
In the case of `COc1ccc(S(=O)(=O)Nc2c(/C=C\c3cc(OC)c(OC)c(OC)c3)ccc(OC)c2O)cc1`, the GI50 was 0.0255 µM with SNB-75 CNS; 0.054 µM in the experiment with IGROV1 ovarian; 0.0732 µM with TK-10 renal; 0.406 µM in the experiment with COLO 205 colon; 15.1 µM in the experiment with MALME-3M melanoma; 0.0355 µM with KM12 colon. Also, the GI50 in the experiment on HCT-15 colon was 0.0366 µM. The TGI is 88.8 µM with SNB-75 CNS; more than 100 µM in the experiment on IGROV1 ovarian; 59.1 µM in the experiment on TK-10 renal; 1.91 µM with COLO 205 colon; more than 100 µM in the experiment with MALME-3M melanoma; more than 100 µM with KM12 colon. The compound also showed a TGI in the experiment on HCT-15 colon of more than 100 µM.
Consider `C#CC1(O)C(COP(=O)(O)OCC2OC(n3cc(F)c(=O)[nH]c3=O)CC2O)OC(n2ccc(N)nc2=O)C1O` (centres undefined), for which the GI50 in the experiment on IGROV1 ovarian was 0.0398 µM; with TK-10 renal, 0.01 µM; in the experiment on COLO 205 colon it was less than 0.01 µM; with T-47D breast, less than 0.0238 µM; in the experiment on MALME-3M melanoma, less than 0.0118 µM; with KM12 colon it was less than 0.01 µM. The GI50 in the experiment with HCT-15 colon was less than 0.0166 µM. The TGI is more than 100 µM in the experiment with IGROV1 ovarian; 0.96 µM in the experiment with COLO 205 colon; 0.444 µM in the experiment with MALME-3M melanoma; more than 23.8 µM in the experiment on KM12 colon; more than 100 µM in the experiment on HCT-15 colon.
For the compound `CC(=O)Nc1cc2cc(NS(=O)(=O)c3ccc(Cl)c(Cl)c3)ccc2oc1=O`, the TGI with IGROV1 ovarian is more than 100 µM; in the experiment with TK-10 renal, more than 100 µM; in the experiment with COLO 205 colon, 93.7 µM; in the experiment on T-47D breast, 43.5 µM; in the experiment on KM12 colon it was 92.3 µM; in the experiment on HCT-15 colon, more than 100 µM.
With `CC1=C(C(=O)Nc2ccc(F)c(Cl)c2)C(c2cccc(Oc3ccccc3)c2)NC(=S)N1` (centres undefined), the GI50 is 10.6 µM with IGROV1 ovarian; 16.3 µM in the experiment on TK-10 renal; 17.9 µM in the experiment on COLO 205 colon; 40.4 µM in the experiment with T-47D breast; 18.8 µM with KM12 colon; 11.5 µM in the experiment with HCT-15 colon. The TGI in the experiment on IGROV1 ovarian was 37 µM; with TK-10 renal it was more than 50 µM; in the experiment with COLO 205 colon it was more than 50 µM; in the experiment with T-47D breast it was more than 50 µM; in the experiment on KM12 colon, more than 50 µM; with HCT-15 colon, 33.2 µM.
For the compound `CCC(C)C1=C(O)[N+]2([O-])Oc3ccc(C4=C(O)C(=O)C(c5ccc(O)cc5)=C(O)C4=O)cc3OC2(C(C)CC)C(=O)N1O` (centres undefined), the GI50 in the experiment on SNB-75 CNS was more than 100 µM; in the experiment with IGROV1 ovarian, 17 µM; in the experiment on TK-10 renal it was 3.41 µM; in the experiment with COLO 205 colon, 12.6 µM; in the experiment on MALME-3M melanoma, 14.7 µM; in the experiment with KM12 colon, 40.3 µM. Moreover, the GI50 in the experiment on HCT-15 colon is 5.82 µM. The TGI with SNB-75 CNS was more than 100 µM; in the experiment with IGROV1 ovarian, more than 100 µM; in the experiment on TK-10 renal it was more than 100 µM; with COLO 205 colon, more than 100 µM; with MALME-3M melanoma it was 48.2 µM; with KM12 colon, more than 100 µM. The compound also gave a TGI in the experiment with HCT-15 colon of more than 100 µM.
For `COc1cc2ncnc(Nc3ccc(Oc4ccnc(C)c4)c(C)c3)c2cc1NC(=O)CC1CCSS1` (centres undefined), the GI50 with SNB-75 CNS was 1.41 µM; in the experiment with IGROV1 ovarian, 1.54 µM; in the experiment on TK-10 renal, 0.896 µM; in the experiment with HCT-15 colon, 1.04 µM. In addition, the TGI in the experiment on SNB-75 CNS was more than 25.2 µM; in the experiment on IGROV1 ovarian, more than 50 µM; in the experiment with TK-10 renal, 1.84 µM; in the experiment on HCT-15 colon, 2.31 µM.
As for `NCCCNc1nc2ccccc2c2c(=O)c3cccc(Cl)c3sc12`, the GI50 in the experiment on SNB-75 CNS is 1.34 µM; in the experiment with TK-10 renal, 2.31 µM; in the experiment on MALME-3M melanoma, 1.57 µM; in the experiment with HCT-15 colon, 1.64 µM. For the same compound, the TGI in the experiment on SNB-75 CNS was determined as 2.69 µM; in the experiment on TK-10 renal, 3.95 µM; in the experiment on MALME-3M melanoma, 3 µM; with HCT-15 colon it was 3.16 µM.
As to `CCCCCCCCCCCCN=C(N)c1ccc(N2CCN(c3ccc(C(N)=NCCCCCCCCCCCC)cc3)CC2)cc1`, the GI50 was 13.2 µM in the experiment on TK-10 renal; 11.6 µM with COLO 205 colon; 10.6 µM in the experiment on T-47D breast; 11.7 µM in the experiment on KM12 colon; 35 µM in the experiment on HCT-15 colon. The TGI in the experiment on TK-10 renal was more than 50 µM; in the experiment with COLO 205 colon it was 24.4 µM; in the experiment with T-47D breast, 21.3 µM; with KM12 colon, 25.1 µM; in the experiment on HCT-15 colon, more than 50 µM.
With `O=C1C=C(OCC=C(C(F)(F)F)C(F)(F)F)c2ccccc2C1=O`, the GI50 is 2.11 µM with COLO 205 colon; 0.777 µM with T-47D breast; 1.56 µM in the experiment with MALME-3M melanoma; 1.67 µM in the experiment on KM12 colon; 2.06 µM with HCT-15 colon. Besides, the TGI is 4.73 µM with COLO 205 colon; 3.7 µM in the experiment on T-47D breast; 3.11 µM with MALME-3M melanoma; 3.25 µM in the experiment on KM12 colon; 5.7 µM with HCT-15 colon.
In the case of `O=C(Nc1cc(Cl)ccc1O)c1ccccc1Nc1ccnc(C(F)(F)F)c1`, the GI50 in the experiment with SNB-75 CNS was 2.17 µM; in the experiment with TK-10 renal, 4.72 µM; in the experiment on COLO 205 colon it was 2.38 µM; with T-47D breast it was 2.47 µM; with MALME-3M melanoma it was 2.2 µM; with KM12 colon it was 2.74 µM. For the same compound, the GI50 in the experiment on HCT-15 colon was 3.55 µM. Further, the TGI in the experiment on SNB-75 CNS worked out at 6.55 µM; in the experiment on TK-10 renal, 16.8 µM; in the experiment with COLO 205 colon, 5.4 µM; in the experiment with T-47D breast, 8.5 µM; in the experiment with MALME-3M melanoma, 7.39 µM; in the experiment on KM12 colon, 8.13 µM. The TGI in the experiment with HCT-15 colon is more than 100 µM.
For `O=C(Nc1ccccc1)OC1OC(COC(=O)c2ccccc2)C(OC(=O)c2ccccc2)C1OS(=O)(=O)c1ccc([N+](=O)[O-])cc1` (centres undefined), the TGI in the experiment on IGROV1 ovarian, in the experiment with TK-10 renal, in the experiment on COLO 205 colon, in the experiment on T-47D breast, in the experiment with MALME-3M melanoma and with KM12 colon was more than 100 µM throughout. This compound also had a TGI in the experiment with HCT-15 colon of more than 100 µM.
For the compound `COc1cc([N+](=O)[O-])c(S(=O)(=O)O)cc1-n1nc(C(=O)Nc2ccccc2)n[n+]1-c1cc(S(=O)(=O)[O-])c([N+](=O)[O-])cc1OC`, the TGI in the experiment with SNB-75 CNS, in the experiment on IGROV1 ovarian, with TK-10 renal, in the experiment with COLO 205 colon, with MALME-3M melanoma and in the experiment with KM12 colon was more than 100 µM throughout. The TGI in the experiment on HCT-15 colon is more than 100 µM.
As to `CCOC(=O)c1c(C)nc2c(c1N)/C(=C/c1ccccn1)C(=O)N2Cc1ccccc1`, the GI50 is 1.2 µM in the experiment with IGROV1 ovarian; 1.51 µM in the experiment with TK-10 renal; 1.06 µM in the experiment with COLO 205 colon; 1.13 µM with T-47D breast; 0.937 µM in the experiment on MALME-3M melanoma; 1.15 µM in the experiment with KM12 colon. Further, the GI50 in the experiment with HCT-15 colon was 1.07 µM. Besides, the TGI in the experiment on IGROV1 ovarian was 3.47 µM; with TK-10 renal, more than 50 µM; in the experiment with COLO 205 colon, 2.38 µM; in the experiment with T-47D breast, 3.3 µM; with MALME-3M melanoma it was 2.2 µM; in the experiment with KM12 colon, 2.85 µM. Also, in the experiment with HCT-15 colon, the TGI turned out to be 2.63 µM.
`COCCc1n(Cc2ccc3ccccc3c2)c2ccccc2[n+]1Cc1ccc2ccccc2c1`: the GI50 in the experiment on TK-10 renal was 1.26 µM; in the experiment with MALME-3M melanoma, 0.443 µM; with KM12 colon it was 0.415 µM. For the same compound, the TGI in the experiment on TK-10 renal came out at 2.65 µM; in the experiment on MALME-3M melanoma, 1.72 µM; with KM12 colon it was 1.64 µM.
Regarding `COc1ccc2c(c1)/C(=C\c1c(-c3cc(OC)ccc3OC)nc3sccn13)C(=O)N2`, the GI50 in the experiment on IGROV1 ovarian was 0.697 µM; with TK-10 renal it was 1.76 µM; in the experiment with COLO 205 colon, 1.51 µM; with T-47D breast, 1.32 µM; with MALME-3M melanoma, 1.38 µM; with KM12 colon, 2 µM. For the same compound, the GI50 with HCT-15 colon is 7.19 µM and 5.37 µM. The TGI with IGROV1 ovarian was determined as 2.73 µM; with TK-10 renal, 3.14 µM; with COLO 205 colon, 2.84 µM; with T-47D breast, 2.74 µM; in the experiment with MALME-3M melanoma it was 2.97 µM; in the experiment with KM12 colon it was 3.98 µM. Besides, the TGI in the experiment with HCT-15 colon turned out to be 18.7 µM.
For the compound `COc1cc2c3c(n(CCCNCCCNCCN)c(=O)c2cc1OC)-c1cc2c(cc1C3=O)OCO2`, the GI50 is 28.9 µM in the experiment on SNB-75 CNS; 32.3 µM in the experiment on IGROV1 ovarian; 53.7 µM in the experiment with TK-10 renal; 23.8 µM in the experiment with COLO 205 colon; 46.8 µM in the experiment with T-47D breast; 85 µM with KM12 colon. Further, the GI50 in the experiment with HCT-15 colon was more than 100 µM. The TGI is 94.6 µM with SNB-75 CNS; more than 100 µM with IGROV1 ovarian; more than 100 µM with TK-10 renal; more than 100 µM in the experiment on COLO 205 colon; more than 100 µM with T-47D breast; more than 100 µM in the experiment on KM12 colon. This compound also registered a TGI in the experiment on HCT-15 colon of more than 100 µM.

The record behind these values is PubChem BioAssay (NCI).
